In US20190225650A1, “PEPTIDOMIMETIC MACROCYCLES AND USE THEREOF IN REGULATING HIF1ALPHA” (AILERON THERAPEUTICS, INC., priority 2013, published 2019):
Bridge positions count the residues as written; N and C are the ends. Square brackets hold non-standard residues; d marks the D form. Peptide text beside a SMILES is read from it. S5 = C=CCCC[C@](C)(N)C(=O)O

Columns and labels:
HRE-bla ME-180 cells [1] = assay: Reporter gene assay (HRE-bla ME-180 HIF reporter, GeneBLAzer); assay type: cell-based, human; settings: for EC50: 24 hour normoxia
How it was run: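 A FRET β-lactamase readout of HIF transcription was used. After compound treatment in 0.3% DMSO/media under normoxic conditions, 20 μl of 6× LiveBLAzer-FRET B/G (CCF4-AM) substrate was added. Plates sat 3 hr at room temperature in the dark and were read at 409 Ex/460Em and 409Ex/530Em on a Synergy 2. Inhibition was compared against DMSO vehicle controls, with chetomin as positive control.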

HRE-bla ME-180 cells [2] = assay: Cell proliferation assay (viability, MTT, 1% FBS); assay type: cell-based, human
How it was run: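 Viable cell number was measured with the CellTiter 96 (MTT) kit after compounds were applied for a 16 h normoxic (21% O2) pretreatment, followed by further normoxic or hypoxic (1% O2) culture. Cells: 2×10^4 ME-180 per well, Opti-MEM + 1% FBS, 0.5% DMSO vehicle.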

[3] = target: T1, flag-tagged HIF1α (AA 786-826) / His6-tagged p300 (AA 323-423) complex (Homo sapiens, UniProt Q09472); assay: HIF1α p300 displacement assay (TR FRET, +CHAPS); assay type: binding; settings: read-out: IC50 (nM) (HIF1α_p300 Displacement + CHAPS)
T1 construct: His6-tagged p300 (AA 323-423); made in house; host or cells: E. coli (pETDuet vector)
How it was run: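 In this TR-FRET displacement format, peptides compete HIF1α C-terminal transactivation domain off p300-CH. They were preincubated 1 h at room temperature with 300 nM complex in HEPES pH 7.4/NaCl buffer with 7.5 mM CHAPS and 1 mM DTT. Anti-His-D2 (4 nM) and anti-Flag-K (0.5 μM) followed for 2 h, and a one-site fit of the fluorescence ratio gave IC50.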

EC50 (HRE-bla ME-180 cells [1]) [µM]	IC50 [3] [nM]	SMILES	18 h Avg % max inhibition at top conc (HIF Rptr-24 hrs normoxia) (μM) (HRE-bla ME-180 cells [1])	Viability 1% FBS AVG (MTT V3-24 hr Normoxia) (μM) (HRE-bla ME-180 cells [2])
≤ 5	> 700	CC[C@H](C)[C@H](NC(=O)[C@H](CCCNC(=N)N)NC(=O)[C@H](CC(N)=O)NC(=O)[C@H](CC(C)C)NC(=O)[C@H](C)NC(=O)[C@H](CCSC)NC(=O)[C@]1(C)CCCC=CCCC[C@](C)(NC(=O)[C@H](CCSC)NC(=O)[C@H](CC(C)C)NC(=O)[C@@H](NC(=O)[C@H](C)NC(=O)[C@H](CCC(N)=O)NC(=O)[C@H](CC(N)=O)NC(=O)[C@@H](NC(=O)[C@H](Cc2ccccc2)NC(C)=O)[C@@H](C)CC)C(C)C)C(=O)N[C@@H](CC(C)C)C(=O)N[C@@H](C(C)C)C(=O)N[C@@H]([C@@H](C)CC)C(=O)N1)C(N)=O [SP-272] (Ac-FINQAVLM[S5]LVI[S5]MALNRI-NH2; staple 9-13)	++++ (≥50: ++++)	++ (≤5 but <15: ++)
5 to 15	400 to 700	CC[C@H](C)[C@H](NC(=O)[C@H](Cc1ccccc1)NC(C)=O)C(=O)N[C@@H](CC(=O)O)C(=O)N[C@@H](CCC(=O)O)C(=O)N[C@@H](CCC(=O)O)C(=O)N[C@H](C(=O)N[C@@H](CC(C)C)C(=O)N[C@@H](CCSC)C(=O)N[C@@]1(C)CCCC=CCCC[C@@](C)(C(=O)N[C@@H](CCSC)C(=O)N[C@@H](C)C(=O)N[C@@H](CC(C)C)C(=O)N[C@@H](CC(=O)O)C(=O)N[C@@H](CCCNC(=N)N)C(N)=O)NC(=O)[C@H]([C@@H](C)CC)NC(=O)[C@H](C(C)C)NC(=O)[C@H](CC(C)C)NC1=O)C(C)C [SP-281] (Ac-FIDEEVLM[S5]LVI[S5]MALDR-NH2; staple 9-13)	++++ (≥50: ++++)	++++ (≥30: ++++)
> 30	> 700	CC[C@H](C)[C@H](NC(=O)[C@H](CCCNC(=N)N)NC(=O)[C@H](CC(=O)O)NC(=O)[C@H](CC(C)C)NC(=O)[C@H](C)NC(=O)[C@H](CCSC)NC(=O)[C@]1(C)CCCC=CCCC[C@](C)(NC(=O)[C@H](CCSC)NC(=O)[C@H](CC(C)C)NC(=O)[C@@H](NC(=O)[C@H](CCCCN)NC(=O)[C@H](CCC(=O)O)NC(=O)[C@H](CC(=O)O)NC(=O)[C@@H](NC(=O)[C@H](Cc2ccccc2)NC(C)=O)[C@@H](C)CC)C(C)C)C(=O)N[C@@H](CC(C)C)C(=O)N[C@@H](C(C)C)C(=O)N[C@@H]([C@@H](C)CC)C(=O)N1)C(N)=O [SP-283] (Ac-FIDEKVLM[S5]LVI[S5]MALDRI-NH2; staple 9-13)	+++ (≤25 but <50: +++)	++++ (≥30: ++++)
5 to 15	400 to 700	CC[C@H](C)[C@H](NC(=O)[C@H](CCCNC(=N)N)NC(=O)[C@H](CC(=O)O)NC(=O)[C@H](CC(C)C)NC(=O)[C@H](C)NC(=O)[C@H](CCSC)NC(=O)[C@]1(C)CCCC=CCCC[C@](C)(NC(=O)[C@H](CCSC)NC(=O)[C@H](CC(C)C)NC(=O)[C@@H](NC(=O)[C@H](Cc2c[nH]cn2)NC(=O)[C@H](CCC(=O)O)NC(=O)[C@H](CC(=O)O)NC(=O)[C@@H](NC(=O)[C@H](Cc2ccccc2)NC(C)=O)[C@@H](C)CC)C(C)C)C(=O)N[C@@H](CC(C)C)C(=O)N[C@@H](C(C)C)C(=O)N[C@@H]([C@@H](C)CC)C(=O)N1)C(N)=O [SP-284] (Ac-FIDEHVLM[S5]LVI[S5]MALDRI-NH2; staple 9-13)	+++ (≤25 but <50: +++)	++++ (≥30: ++++)
